The record followed here is patent US11384060B2, “Amide compounds and use thereof” (ALPHALA CO., LTD., priority 2017, dated 2022).

The target in test [1] is T1, glucagon receptor (GCGR) overexpressed CHO-K1 cells or human primary hepatocytes (Homo sapiens, UniProt P47871).
T1 construct: expressed in transfected cells; host or cells: GCGR overexpressed CHO-K1 cells or human primary hepatocytes (endogenous receptor)
Description: Glucagon cAMP inhibition assay (Cisbio cAMP Dynamic 2 HTRF). Format: cell-based. The settings on record: inhibition of glucagon (EC50 concentration) induced cAMP production. The procedure, abridged: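 GCGR-overexpressing CHO-K1 cells or human primary hepatocytes in HBSS with 0.1% BSA and 800 nM IBMX, pre-incubated 30 min with serially diluted compounds (1% DMSO final), then stimulated 30 min at room temperature with glucagon at its EC50. cAMP measured by HTRF after 60 min lysis; IC50 by non-linear regression.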
A general note: TR-FRET usually uses a lanthanide donor and a delayed reading to cut background.

Another test concerns the target T2, glucagon receptor (GCGR) (Homo sapiens, UniProt P47871).
T2 construct: expressed in transfected cells; host or cells: CHO-K1 cells overexpressing GCGR (membrane fractions)
In words: I125-glucagon binding assay (competition, GCGR membrane fractions). As to conditions: competition with I125-glucagon 0.0625 nM, membrane fractions of GCGR overexpressed CHO-K1 cells. The method, boiled down: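 Membranes from CHO-K1 cells overexpressing GCGR, 7.5 μg/well in 50 mM Tris pH 7.4 with 0.5% BSA, were preincubated 5 min with serially diluted compounds, then given 0.0625 nM final I^125-glucagon for 30 min at 25° C. Bound label was filtered on PEI-coated GF/B and counted; IC50 by non-linear regression.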

T1 sequence (P47871 26-477): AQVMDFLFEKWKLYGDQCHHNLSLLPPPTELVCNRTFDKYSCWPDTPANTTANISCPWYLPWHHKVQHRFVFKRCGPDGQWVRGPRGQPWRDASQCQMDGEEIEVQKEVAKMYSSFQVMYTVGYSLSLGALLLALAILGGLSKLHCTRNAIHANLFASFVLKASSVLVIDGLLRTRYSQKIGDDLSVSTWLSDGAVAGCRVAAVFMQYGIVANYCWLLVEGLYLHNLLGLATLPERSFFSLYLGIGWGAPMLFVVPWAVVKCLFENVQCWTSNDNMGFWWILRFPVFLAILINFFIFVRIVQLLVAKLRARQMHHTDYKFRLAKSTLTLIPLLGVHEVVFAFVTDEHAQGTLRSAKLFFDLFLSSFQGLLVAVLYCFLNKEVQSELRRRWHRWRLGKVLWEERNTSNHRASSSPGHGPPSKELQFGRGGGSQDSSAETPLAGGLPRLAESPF
T2 sequence (P47871 26-477): as above

Consider `CC[C@H](C)[C@@H](COc1ccc(-c2cc3ccccc3o2)c(Cl)c1)Nc1ccc(C(=O)NCc2nnn[nH]2)cc1` [Compound 3-1, N-((1H-tetrazol-5-yl)methyl)-4-(((2S,3S)-1-(4-(benzofuran-2-yl)-3-chlorophenoxy)-3-methylpentan-2-yl)amino)benzamide], for which, in test [1], the “IC50 cAMP” value is listed as 1822 nM. The molecule further had an IC50 at glucagon receptor (GCGR) of 217 nM.
As for `CC(C)[C@@H](COc1ccc(-c2ccc(C(F)(F)F)cc2Cl)c(Cl)c1)Nc1ccc(C(=O)NC[C@@H](O)C(=O)O)cc1` [Compound 3-2, (R)-3-(4-(((S)-1-((2,2′-dichloro-4′-(trifluoromethyl)-[1,1′-biphenyl]-4-yl)oxy)-3-methylbutan-2-yl)amino)benzamido)-2-hydroxypropanoic Acid], the “IC50 cAMP” value in test [1] is reported as greater than 10000 nM. Also, the IC50 on glucagon receptor (GCGR) was determined as 135 nM.
For `CC(C)[C@@H](COc1ccc(-c2ccc(C(F)(F)F)cc2Cl)c(Cl)c1)Nc1ccc(C(=O)NCc2nnn[nH]2)cc1` [Compound 3-3, (S)—N-((1H-tetrazol-5-yl)methyl)-4-((1-((2,2′-dichloro-4′-(trifluoromethyl)-[1,1′-biphenyl]-4-yl)oxy)-3-methylbutan-2-yl)amino)benzamide], the “IC50 cAMP” value in test [1] is recorded as 1250 nM. Further, at glucagon receptor (GCGR), the IC50 was 86 nM.
For the molecule `CC(C)[C@@H](COc1ccc(-c2ccc(C(F)(F)F)cc2Cl)c(Cl)c1)Nc1ccc(C(=O)NCCC(=O)O)cc1` [Compound 3-4, (S)-3-(4-((1-((2,2′-dichloro-4′-(trifluoromethyl)-[1,1′-biphenyl]-4-yl)oxy)-3-methylbutan-2-yl)amino)benzamido)propanoic Acid], in test [1], the “IC50 cAMP” value is on record as 313.6 nM. Also, the IC50 on glucagon receptor (GCGR) is 17 nM.
`CC(C)[C@@H](COc1ccc(-c2cc3ccccc3o2)c(Cl)c1)Nc1ccc(C(=O)NCc2nnn[nH]2)cc1` [Compound 3-5, (S)—N-((1H-tetrazol-5-yl)methyl)-4-((1-(4-(benzofuran-2-yl)-3-chlorophenoxy)-3-methylbutan-2-yl)amino)benzamide]: the “IC50 cAMP” value in test [1] is given as 1863 nM. On glucagon receptor (GCGR), this molecule had an IC50 of 117 nM.
As for `CC(C)[C@@H](COc1ccc(-c2cc3ccccc3o2)c(Cl)c1)Nc1ccc(C(=O)NC[C@@H](O)C(=O)O)cc1` [Compound 3-6, (R)-3-(4-(((S)-1-(4-(benzofuran-2-yl)-3-chlorophenoxy)-3-methylbutan-2-yl)amino)benzamido)-2-hydroxypropanoic Acid], the “IC50 cAMP” value in test [1] worked out at 9291 nM. At glucagon receptor (GCGR), the IC50 was 184 nM.
For `CC(C)[C@@H](COc1ccc(-c2cc3ccccc3o2)c(Cl)c1)Nc1ccc(C(=O)NCCC(=O)O)cc1` [Compound 3-7, (S)-3-(4-((1-(4-(benzofuran-2-yl)-3-chlorophenoxy)-3-methylbutan-2-yl)amino)benzamido)propanoic Acid], the “IC50 cAMP” value in test [1] is listed as 363.5 nM. For the same molecule, the IC50 on glucagon receptor (GCGR) amounted to 103 nM.
As to `CCCC[C@@H](COc1ccc(-c2ccc(C(F)(F)F)cc2Cl)c(Cl)c1)Nc1ccc(C(=O)NCCC(=O)O)cc1` [Compound 3-8, (S)-3-(4-((1-((2,2′-dichloro-4′-(trifluoromethyl)-[1,1′-biphenyl]-4-yl)oxy)hexan-2-yl)amino)benzamido)propanoic Acid], in test [1], the “IC50 cAMP” value came out at 35 nM. Moreover, the IC50 at glucagon receptor (GCGR) amounted to 26 nM.
As for `CCCC[C@@H](COc1ccc(-c2ccc(C(F)(F)F)cc2Cl)c(Cl)c1)Nc1ccc(C(=O)NCc2nnn[nH]2)cc1` [Compound 3-9, (S)—N-((1H-tetrazol-5-yl)methyl)-4-((1-((2,2′-dichloro-4′-(trifluoromethyl)-[1,1′-biphenyl]-4-yl)oxy)hexan-2-yl)amino)benzamide], the “IC50 cAMP” value in test [1] amounted to 528.1 nM. This molecule also came in with an IC50 at glucagon receptor (GCGR) of 37 nM.
In the same order, the values of `CCCC[C@@H](COc1ccc(-c2cc3ccccc3o2)c(Cl)c1)Nc1ccc(C(=O)NCCC(=O)O)cc1` [Compound 3-10, (S)-3-(4-((1-(4-(benzofuran-2-yl)-3-chlorophenoxy)hexan-2-yl)amino)benzamido)propanoic Acid] are 88.7 nM and 20 nM.
On to `CCCC[C@@H](COc1ccc(-c2cc3ccccc3o2)c(Cl)c1)Nc1ccc(C(=O)NCc2nnn[nH]2)cc1` [Compound 3-11, (S)—N-((1H-tetrazol-5-yl)methyl)-4-((1-(4-(benzofuran-2-yl)-3-chlorophenoxy)hexan-2-yl)amino)benzamide], for which the “IC50 cAMP” value in test [1] amounted to 672.8 nM. The same molecule returned an IC50 at glucagon receptor (GCGR) of 149 nM.
For `CCCC[C@@H](COc1ccc(-c2ccc(Cl)cc2Cl)c(Cl)c1)Nc1ccc(C(=O)NCCC(=O)O)cc1` [Compound 3-12, (S)-3-(4-((1-((2,2′,4′-trichloro-[1,1′-biphenyl]-4-yl)oxy)hexan-2-yl)amino)benzamido)propanoic Acid] the same measures were 28.1 nM and 30 nM.
As to `CCCC[C@@H](COc1ccc(-c2ccc(Cl)cc2Cl)c(Cl)c1)Nc1ccc(C(=O)NCc2nnn[nH]2)cc1` [Compound 3-13, (S)—N-((1H-tetrazol-5-yl)methyl)-4-((1-((2,2′,4′-trichloro-[1,1′-biphenyl]-4-yl)oxy)hexan-2-yl)amino)benzamide], the “IC50 cAMP” value in test [1] turned out to be 279.9 nM. The IC50 on glucagon receptor (GCGR) was 92 nM.
In the same order, the values of `CC(C)[C@@H](COc1cc(Cl)c(-c2cc3ccccc3o2)cc1Cl)Nc1ccc(C(=O)NCCC(=O)O)cc1` [Compound 3-14, (S)-3-(4-((1-(4-(benzofuran-2-yl)-2,5-dichlorophenoxy)-3-methylbutan-2-yl)amino)benzamido)propanoic Acid] are 115.4 nM and 58 nM.
In the case of `CCCC[C@@H](COc1ccc(-c2ccc(C(F)(F)F)cc2)c(Cl)c1)Nc1ccc(C(=O)NCCC(=O)O)cc1` [Compound 3-16, (S)-3-(4-((1-((2-chloro-4′-(trifluoromethyl)-[1,1′-biphenyl]-4-yl)oxy)hexan-2-yl)amino)benzamido)propanoic Acid], the “IC50 cAMP” value in test [1] came out at 367.7 nM. Further, at glucagon receptor (GCGR), the IC50 is 51 nM.
For `CCCC[C@@H](COc1ccc(-c2ccc(C(F)(F)F)cc2)c(Cl)c1)Nc1ccc(C(=O)NCc2nnn[nH]2)cc1` [Compound 3-17, (S)—N-((1H-tetrazol-5-yl)methyl)-4-((1-((2-chloro-4′-(trifluoromethyl)-[1,1′-biphenyl]-4-yl)oxy)hexan-2-yl)amino)benzamide] the same measures were 105 nM and 111 nM.
For `CC(C)[C@@H](COc1ccc(-c2cc3ccccc3o2)c(Cl)c1)Nc1ccc(C(=O)NCCS(=O)(=O)O)cc1` [Compound 3-18, (S)-2-(4-((1-(4-(benzofuran-2-yl)-3-chlorophenoxy)-3-methylbutan-2-yl)amino)benzamido)ethane-1-sulfonic Acid] the same measures were greater than 30000 nM and 836 nM.
In the same order, the values of `CC[C@H](C)[C@@H](COc1cc(Cl)c(-c2cc3ccccc3o2)cc1Cl)Nc1ccc(C(=O)NCCC(=O)O)cc1` [Compound 3-19, 3-(4-(((2S,3S)-1-(4-(benzofuran-2-yl)-2,5-dichlorophenoxy)-3-methylpentan-2-yl)amino)benzamido)propanoic Acid] are 130 nM and 64 nM.
`CC[C@H](C)[C@@H](COc1cc(Cl)c(-c2ccc(C(F)(F)F)cc2Cl)cc1Cl)Nc1ccc(C(=O)NCCC(=O)O)cc1` [Compound 3-20, 3-(4-(((2S,3S)-3-methyl-1-((2,2′,5-trichloro-4′-(trifluoromethyl)-[1,1′-biphenyl]-4-yl)oxy)pentan-2-yl)amino)benzamido)propanoic Acid]: the “IC50 cAMP” value in test [1] stood at 44 nM. The molecule also had a 50% inhibitory concentration (IC50) at glucagon receptor (GCGR) of 73 nM.
For the molecule `CC[C@H](C)[C@@H](COc1cc(Cl)c(-c2ccc(C(F)(F)F)cc2F)cc1Cl)Nc1ccc(C(=O)NCCC(=O)O)cc1` [Compound 3-21], the “IC50 cAMP” value in test [1] is listed as 653 nM. At glucagon receptor (GCGR), this molecule showed an IC50 of 295 nM.
Take `CCCC[C@@H](COc1ccc(-c2ccc(C(F)(F)F)cc2F)c(Cl)c1)Nc1ccc(C(=O)NCCC(=O)O)cc1` [Compound 3-22, (S)-3-(4-((1-((2-chloro-2′-fluoro-4′-(trifluoromethyl)-[1,1′-biphenyl]-4-yl)oxy)hexan-2-yl)amino)benzamido)propanoic Acid]: the “IC50 cAMP” value in test [1] turned out to be 54 nM. On glucagon receptor (GCGR), the IC50 was determined as 83 nM.
For `CC(C)(C)[C@@H](COc1ccc(-c2cc3ccccc3o2)c(Cl)c1)Nc1ccc(C(=O)NCCC(=O)O)cc1` [Compound 3-23, (S)-3-(4-((1-(4-(benzofuran-2-yl)-3-chlorophenoxy)-3,3-dimethylbutan-2-yl)amino)benzamido)propanoic Acid] the same measures were 293 nM and 156 nM.
In the same order, the values of `CC(C)(C)[C@@H](COc1ccc(-c2ccc(C(F)(F)F)cc2F)c(Cl)c1)Nc1ccc(C(=O)NCCC(=O)O)cc1` [Compound 3-24, (S)-3-(4-((1-((2-chloro-2′-fluoro-4′-(trifluoromethyl)-[1,1′-biphenyl]-4-yl)oxy)-3,3-dimethylbutan-2-yl)amino)benzamido)propanoic Acid] are 80 nM and 53 nM.
In the same order, the values of `CC(C)[C@@H](COc1ccc(-c2ccc(C(F)(F)F)cc2)cc1)Nc1ccc(C(=O)NCCC(=O)O)cn1` [Compound 4-1, (S)-3-(6-((3-methyl-1-((4′-(trifluoromethyl)-[1,1′-biphenyl]-4-yl)oxy)butan-2-yl)amino)nicotinamido)propanoic Acid] are 626.9 nM and 369 nM.

What is called IC50 is the concentration needed to halve the response being measured. Lower therefore signals greater potency.
